Assays:
[1] = system: a variety of test species; test: Pre-emergence herbicidal activity (glasshouse, sprayed one day after sowing, evaluated after 13 days); assay type: in vivo; parameters: key: 5=total damage to plant; 0=no damage to plant; settings: application pre-emergence, rate 1000 g/Ha, scale 0-5
Procedure, shortened: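 Seeds sown in standard soil in pots, held one day in glasshouse (24/16 °C day/night, 14 h light, 65% humidity), then sprayed with aqueous solution of compound formulated in acetone/water 50:50 with 0.5% Tween 20. Grown on under same conditions, watered twice daily; damage scored after 13 days (0 = none, 5 = total).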

[2] = system: a variety of test species; test: Post-emergence herbicidal activity (glasshouse, sprayed after 8 days cultivation, evaluated after 13 days); assay type: in vivo; parameters: key: 5=total damage to plant; 0=no damage to plant; settings: rate 1000 g/Ha, scale 0-5
Procedure, shortened: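 Damage rating 0 (none) to 5 (total), assessed 13 days after spraying. Plants received the compound in acetone/water 50:50 with 0.5% Tween 20 at 8 days post-sowing, then were kept at 24/16 °C, 14 h photoperiod, 65% RH.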

| SMILES | melting point [°C] | Pre-emergence herbicidal damage score, ABUTH [1] | Pre-emergence herbicidal damage score, ALOMY [1] | Pre-emergence herbicidal damage score, AMARE [1] | Pre-emergence herbicidal damage score, ECHCG [1] | Pre-emergence herbicidal damage score, SETFA [1] | Pre-emergence herbicidal damage score, ZEAMX [1] | ABUTH (Abutilon theophrasti) damage score, application post-emergence [2] | ALOMY (Alopecurus myosuroides) damage score, application post-emergence [2] | AMARE (Amaranthus retroflexus) damage score, application post-emergence [2] | ECHCG (Echinochloa crus-galli) damage score, application post-emergence [2] | SETFA (Setaria faberi) damage score, application post-emergence [2] | ZEAMX (Zea mays) damage score, application post-emergence [2] |
| --- | --- | --- | --- | --- | --- | --- | --- | --- | --- | --- | --- | --- | --- |
| CC1=C(Cl)C(=O)N(c2noc(C(C)C)c2C#N)C1O (stereo not shown) [A44, 3-(4-chloro-2-hydroxy-3-methyl-5-oxo-2H-pyrrol-1-yl)-5-isopropyl-isoxazole-4-carbonitrile] | 117 to 119 | 5 | 4 | 5 | 4 | 5 | 3 | 5 | 5 | 5 | 5 | 5 | 4 |
| CCCCC(C)(C)c1onc(N2C(=O)C(Cl)=C(C)C2O)c1C#N (stereo not shown) [A47] | 99 to 101 | 0 | 2 | 5 | 2 | 1 | 2 | 5 | 5 | 5 | 5 | 5 | 2 |
| CCC(C)c1onc(N2C(=O)C(Cl)=C(C)C2O)c1C#N (stereo not shown) [A49] | 107 to 109 | 5 | 3 | 5 | 4 | 5 | 1 | 5 | 4 | 5 | 5 | 5 | 2 |
| CC1=C(Br)C(=O)N(c2noc(C(C)(C)C)c2C#N)C1O (stereo not shown) [A50] | 182 to 184 | 5 | 3 | 5 | 4 | 5 | 3 | 5 | 4 | 5 | 5 | 5 | 3 |
| CCCC1=C(Br)C(=O)N(c2noc(C(C)(C)C)c2C#N)C1O (stereo not shown) [A51] | 123 to 124 | 4 | 3 | 5 | 4 | 4 | 3 | 5 | 4 | 5 | 5 | 5 | 3 |
| CCCC1=C(Br)C(=O)N(c2cc(C(C)(C)C#N)on2)C1O (stereo not shown) [A52] | 80 to 82 | 5 | 4 | 5 | 5 | 5 | 4 | 5 | 5 | 5 | 5 | 5 | 5 |

Second part, led by results:

| melting point [°C] | SMILES | Pre-emergence herbicidal damage score, ABUTH [1] | Pre-emergence herbicidal damage score, ALOMY [1] | Pre-emergence herbicidal damage score, AMARE [1] | Pre-emergence herbicidal damage score, ECHCG [1] | Pre-emergence herbicidal damage score, SETFA [1] | Pre-emergence herbicidal damage score, ZEAMX [1] | ABUTH (Abutilon theophrasti) damage score, application post-emergence [2] | ALOMY (Alopecurus myosuroides) damage score, application post-emergence [2] | AMARE (Amaranthus retroflexus) damage score, application post-emergence [2] | ECHCG (Echinochloa crus-galli) damage score, application post-emergence [2] | SETFA (Setaria faberi) damage score, application post-emergence [2] | ZEAMX (Zea mays) damage score, application post-emergence [2] |
| --- | --- | --- | --- | --- | --- | --- | --- | --- | --- | --- | --- | --- | --- |
| 130 to 132 | CC1=C(Cl)C(=O)N(c2cc(C(C)(C)CO)on2)C1O (stereo not shown) [A39] | 1 | 1 | 4 | 3 | 0 | 1 | 4 | 3 | 5 | 5 | 1 | 1 |
| 166 to 168 | CCC(C)(C)c1onc(N2C(=O)C(Cl)=C(C)C2O)c1C#N (stereo not shown) [A40] | 4 | 3 | 5 | 5 | 5 | 2 | 5 | 4 | 5 | 5 | 5 | 3 |
| 114 to 116 | C=CC(C)(C)c1cc(N2C(=O)C(Cl)=C(C)C2O)no1 (stereo not shown) [A41] | 5 | 4 | 5 | 4 | 5 | 3 | 5 | 5 | 5 | 5 | 5 | 4 |
| 145 to 147 | CC1=C(Cl)C(=O)N(c2cc(C(C)(C)C#N)on2)C1O (stereo not shown) [A42] | 5 | 4 | 5 | 4 | 5 | 2 | 5 | 5 | 5 | 5 | 5 | 4 |
| 104 to 106 | CCC(C)(CC)c1cc(N2C(=O)C(Cl)=C(C)C2O)no1 (stereo not shown) [A43] | 4 | 4 | 5 | 4 | 5 | 2 | 5 | 5 | 5 | 5 | 5 | 2 |
| 129 to 130 | CCC(C)(CC)c1onc(N2C(=O)C(Cl)=C(C)C2O)c1C#N (stereo not shown) [A45] | 4 | 3 | 5 | 3 | 4 | 2 | 5 | 5 | 5 | 5 | 5 | 3 |
| 113 to 115 | CCCC(C)(C)c1onc(N2C(=O)C(Cl)=C(C)C2O)c1C#N (stereo not shown) [A46] | 2 | 4 | 5 | 4 | 4 | 3 | 5 | 5 | 5 | 5 | 5 | 3 |
